The test deals with T1, AM2 receptor-expressing cells (1321N1 cells transfected with CALCRL+RAMP3) (Homo sapiens, UniProt O60896+Q16602).
T1 construct: host or cells: 1321N1 cells
T1 sequence (Q16602 23-461): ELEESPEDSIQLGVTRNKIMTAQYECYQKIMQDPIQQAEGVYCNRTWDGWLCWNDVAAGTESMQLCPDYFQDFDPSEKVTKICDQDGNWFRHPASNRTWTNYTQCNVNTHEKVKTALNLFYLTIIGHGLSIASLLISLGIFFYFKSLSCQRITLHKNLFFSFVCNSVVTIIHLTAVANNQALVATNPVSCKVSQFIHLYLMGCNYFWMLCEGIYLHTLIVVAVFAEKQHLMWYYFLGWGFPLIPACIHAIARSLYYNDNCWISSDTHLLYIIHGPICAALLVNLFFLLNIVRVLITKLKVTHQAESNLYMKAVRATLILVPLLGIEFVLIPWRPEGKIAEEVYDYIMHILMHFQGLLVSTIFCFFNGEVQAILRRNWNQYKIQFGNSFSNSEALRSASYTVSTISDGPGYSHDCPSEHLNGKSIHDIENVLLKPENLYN
T1 sequence (O60896 24-148): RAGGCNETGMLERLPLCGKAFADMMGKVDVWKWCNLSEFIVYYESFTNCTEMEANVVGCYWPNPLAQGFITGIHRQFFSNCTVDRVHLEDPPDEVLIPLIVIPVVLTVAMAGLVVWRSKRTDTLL
The experiment in a line: AM2 receptor inhibition, LANCE cAMP agonist-antagonist competition assay (AM2 D2 protocol). In kind it is cell-based. To be noted: inhibition of AM induced cAMP in 1321N1 cells expressing CALCRL+RAMP3; read-out: AM2 D2 protocol: pIC50 (converted). The protocol:
Compounds were assessed for their ability to inhibit ligand-induced elevations of cAMP, using the Perkin Elmer LANCE cAMP assay using commercially-available cells expressing a specific receptor of interest using the following general procedure:
Compounds were prepared in dimethyl sulfoxide (DMSO—99.9% pure) (Sigma Aldrich, Cat #: D4540) added to powder stocks to produce a 20 mM solution (100% DMSO) that was sonicated at 37° C. for 10 minutes to fully dissolve the compounds. The 20 mM stocks were diluted further in DMSO to produce a 2 mM solution that was sonicated at 37° C. for 10 minutes. 2 mM stocks were dissolved in assay/stimulation buffer to produce a 400 μM solution that was sonicated at 37° C. for 10 minutes for all cAMP assays. All stocks were stored at −20° C. Then serial dilution (Dilution factor: 10) was performed to achieve the desire experimental concentrations.
Competition assays were performed according to the manufactures instructions using LANCE® TR-FRET cAMP assay kit (Perkin Elmer, Cat #: AD0264). Serial dilutions (3 μl/well) of the molecules were plated in a 384-well OptiPlate (Perkin Elmer, Cat #: 6007299) in duplicates. Appropriate controls (100% stimulation: Forskolin and 0% stimulation: Vehicle control) (6 μl/well) were included in each plate for data normalization. Following the compound addition, 6 μl of G-protein coupled receptor overexpressing cells/Alexa Fluor antibody solution (1:100 dilution) was added in each well at a desired density of 2500 cells/well. The overexpressing cell lines were purchased from DiscoveRx, Birmingham, UK. After spinning the plate at 1000 rpm for 1 minute and vortexing briefly, the cells were pre-incubated with the compounds for 30 minutes at room temperature (covered). Then 3 μl of the equivalent peptide ligand (EC50 dose) was added to all the wells except vehicle and forskolin controls. The plate were then spun down at 1000 rpm for 1 minute and once finished they were vortexed briefly and covered. Cells were stimulated in the presence of the ligands for 15 minutes at room temperature. After stimulation 12 μl of detection mix (Europium-Chelate streptavidin/biotinylated cAMP tracer solution) was added to all wells and incubated for 60 minutes at room temperature. The plate was then read on the Enspire multimode Plate reader (Perkin Elmer), at; 320/340 nm excitation and 615/665 nm emission was recorded.
Assay/Stimulation Buffer (30 mL)—pH 7.4 • 28 mL Hank's Balanced salt solution (+MgCl2, +CaCl2))—(Thermo Fisher Cat #:14170112) • 150 μl HEPES (1M)—(Thermo Fisher Cat #:15630080) • 400 μl Stabilizer (DTPA) Purified BSA (7.5%)—(Perkin Elmer, Cat #: CR84-100) • 60 μl IBMX (250 mM)—(Sigma Aldrich, Cat #: 15879)
The ability of a compound to inhibit the AM induced cAMP activation in AM2 receptor-expressing cells (1321N1 cells transfected with CALCRL+RAMP3, sourced from DiscoverX catalogue number 95-0169C6) was assessed using the protocol above.
For `C[C@@H]1CNC[C@@H](N(CC(=O)Nc2ccc3c(c2)C[C@@]2(C3)C(=O)Nc3ncccc32)C(=O)C(C)(C)C)C1` (relative stereo) [Example 27, N-((3S*,5S*)-5-Methylpiperidin-3-yl)-N-(2-oxo-2-(((R)-2′-oxo-1,1′,2′,3-tetrahydrospiro[indene-2,3′-pyrrolo[2,3-b]pyridin]-5-yl)amino)ethyl)pivalamide], the IC50 is 51.3 nM. Then `C[C@H]1CC[C@H](N(CC(=O)Nc2ccc3c(c2)C[C@@]2(C3)C(=O)Nc3ncccc32)C(=O)C(C)(C)C)CN1` (relative stereo) [Example 28, N-((3S*,6S*)-6-Methylpiperidin-3-yl)-N-(2-oxo-2-(((R)-2′-oxo-1,1′,2′,3-tetrahydrospiro[indene-3′-pyrrolo[2,3-b]pyridin]-5-yl)amino)ethyl)pivalamide], with 186 nM. The result for `C[C@@H]1CC[C@H](N(CC(=O)Nc2ccc3c(c2)C[C@@]2(C3)C(=O)Nc3ncccc32)C(=O)C(C)(C)C)CN1` (relative stereo) [Example 29, N-((3S*,6R*)-6-Methylpiperidin-3-yl)-N-(2-oxo-2-(((R)-2′-oxo-1,1′,2′,3-tetrahydrospiro[indene-2,3′-pyrrolo[2,3-b]pyridin]-5-yl)amino)ethyl)pivalamide] reads 178 nM; that for `CC(C)(C)C(=O)N(CC(=O)Nc1ccc2c(c1)C[C@@]1(C2)C(=O)Nc2ncccc21)C1CCC2CCC1N2` (single isomer, unassigned) [Example 31A], 316 nM. The result for `CC(C)(C)C(=O)N(CC(=O)Nc1ccc2c(c1)C[C@@]1(C2)C(=O)Nc2ncccc21)C1CCC2CCC1N2` (single isomer, unassigned) [Example 31B] reads 200 nM; that for `CC(C)(C)C(=O)N(CC(=O)Nc1ccc2c(c1)CC1(C2)C(=O)Nc2ncccc21)C1CCCNC1` (stereo not shown) [Example 1, N-(2-Oxo-2-((2′-oxo-1,1′,2′,3-tetrahydrospiro[indene-2,3′-pyrrolo[2,3-b]pyridin]-5-yl)amino)ethyl)-N-(piperidin-3-yl)pivalamide], 14.5 nM.

Regarding `CC(C)(C)C(=O)N(CC(=O)Nc1ccc2c(c1)C[C@@]1(C2)C(=O)Nc2ncccc21)[C@H]1CCCNC1` [Example 2, N-(2-Oxo-2-(((R)-2′-oxo-1,1′,2′,3-tetrahydrospiro[indene-2,3′-pyrrolo[2,3-b]pyridin]-5-yl)amino)ethyl)-N—((S)-piperidin-3-yl)pivalamide], the IC50 was 3.02 nM. The result for `CC(C)(C)C(=O)N(CC(=O)Nc1ccc2c(c1)C[C@@]1(C2)C(=O)Nc2ncccc21)[C@@H]1CCCNC1` [Example 3, N-(2-Oxo-2-(((R)-2′-oxo-1,1′,2′,3-tetrahydrospiro[indene-2,3′-pyrrolo[2,3-b]pyridin]-5-yl)amino)ethyl)-N—((R)-piperidin-3-yl)pivalamide] reads 741 nM. The result for `O=C(CN(C(=O)C12CC(C1)C2)[C@H]1CCCNC1)Nc1ccc2c(c1)C[C@@]1(C2)C(=O)Nc2ncccc21` [Example 4, N-(2-Oxo-2-(((R)-2′-oxo-1,1′,2′,3-tetrahydrospiro[indene-2,3′-pyrrolo [2,3-b]pyridin]-5-yl)amino)ethyl)-N—((S)-piperidin-3-yl)bicyclo[1.1.1]pentane-1-carboxamide] reads 251 nM.

With `O=C(CN(C(=O)C1CCCC1)[C@H]1CCCNC1)Nc1ccc2c(c1)C[C@@]1(C2)C(=O)Nc2ncccc21` [Example 5, N-(2-Oxo-2-(((R)-2′-oxo-1,1′,2′,3-tetrahydrospiro[indene-2,3′-pyrrolo[2,3-b]pyridin]-5-yl)amino)ethyl)-N—((S)-piperidin-3-yl)cyclopentanecarboxamide], the IC50 is 170 nM. Consider `CC(C)(F)C(=O)N(CC(=O)Nc1ccc2c(c1)C[C@@]1(C2)C(=O)Nc2ncccc21)[C@H]1CCCNC1` [Example 6, 2-Fluoro-2-methyl-N-[2-oxo-2-[[(3R)-2-oxospiro[1H-pyrrolo[2,3-b]pyridine-3,2′-indane]-5′-yl]amino]ethyl]-N-[(3S)-3-piperidyl]propanamide], for which the IC50 is 8320 nM. Regarding `O=C(CN(C(=O)C1(C(F)(F)F)CC1)[C@H]1CCCNC1)Nc1ccc2c(c1)C[C@@]1(C2)C(=O)Nc2ncccc21` [Example 7, N-(2-Oxo-2-(((R)-2′-oxo-1,1′,2′,3-tetrahydrospiro[indene-2,3′-pyrrolo[2,3-b]pyridin]-5-yl)amino)ethyl)-N—((S)-piperidin-3-yl)-1-(trifluoromethyl)cyclopropanecarboxamide], the IC50 is 955 nM. The result for `CC1(C(=O)N(CC(=O)Nc2ccc3c(c2)C[C@@]2(C3)C(=O)Nc3ncccc32)[C@H]2CCCNC2)CCC1` [Example 8, 1-Methyl-N-(2-oxo-2-(((R)-2′-oxo-1,1′,2′,3-tetrahydrospiro[indene-2,3′-pyrrolo[2,3-b]pyridin]-5-yl)amino)ethyl)-N—((S)-piperidin-3-yl)cyclobutanecarboxamide] reads 145 nM. With `CC(C)(C(=O)N(CC(=O)Nc1ccc2c(c1)C[C@@]1(C2)C(=O)Nc2ncccc21)[C@H]1CCCNC1)C(F)(F)F` [Example 9, 3,3,3-Trifluoro-2,2-dimethyl-N-(2-oxo-2-(((R)-2′-oxo-1,1′,2′,3-tetrahydrospiro[indene-2,3′-pyrrolo[2,3-b]pyridin]-5-yl)amino)ethyl)-N—((S)-piperidin-3-yl)propanamide], the IC50 is 43.7 nM. The result for `CC(C)(C#N)C(=O)N(CC(=O)Nc1ccc2c(c1)C[C@@]1(C2)C(=O)Nc2ncccc21)[C@H]1CCCNC1` [Example 10, 2-Cyano-2-methyl-N-(2-oxo-2-(((R)-2′-oxo-1,1′,2′,3-tetrahydrospiro[indene-2,3′-pyrrolo[2,3-b]pyridin]-5-yl)amino)ethyl)-N—((S)-piperidin-3-yl)propenamide] reads 50.1 nM; that for `COC(C)(C)C(=O)N(CC(=O)Nc1ccc2c(c1)C[C@@]1(C2)C(=O)Nc2ncccc21)[C@H]1CCCNC1` [Example 11, 2-Methoxy-2-methyl-N-(2-oxo-2-(((R)-2′-oxo-1,1′,2′,3-tetrahydrospiro[indene-2,3′-pyrrolo[2,3-b]pyridin]-5-yl)amino)ethyl)-N—((S)-piperidin-3-yl)propenamide], 85.1 nM. The result for `O=C(CN(C(=O)C1(C(F)(F)F)CCC1)[C@H]1CCCNC1)Nc1ccc2c(c1)C[C@@]1(C2)C(=O)Nc2ncccc21` [Example 12, N-(2-Oxo-2-(((R)-2′-oxo-1,1′,2′,3-tetrahydrospiro[indene-2,3′-pyrrolo[2,3-b]pyridin]-5-yl)amino)ethyl)-N—((S)-piperidin-3-yl)-1-(trifluoromethyl)cyclobutanecarboxamide] reads 263 nM; that for `CC(C)(CC(F)(F)F)C(=O)N(CC(=O)Nc1ccc2c(c1)C[C@@]1(C2)C(=O)Nc2ncccc21)[C@H]1CCCNC1` [Example 13, 4,4,4-Trifluoro-2,2-dimethyl-N-(2-oxo-2-(((R)-2′-oxo-1,1′,2′,3-tetrahydrospiro[indene-2,3′-pyrrolo[2,3-b]pyridin]-5-yl)amino)ethyl)-N—((S)-piperidin-3-yl)butanamide], 63.1 nM. Then `CCC1(C(=O)N(CC(=O)Nc2ccc3c(c2)C[C@@]2(C3)C(=O)Nc3ncccc32)[C@H]2CCCNC2)CCOCC1` [Example 14, 4-Ethyl-N-(2-oxo-2-(((R)-2′-oxo-1,1′,2′,3-tetrahydrospiro[indene-2,3′-pyrrolo[2,3-b]pyridin]-5-yl)amino)ethyl)-N—((S)-piperidin-3-yl)tetrahydro-2H-pyran-4-carboxamide], with 288 nM.

The record behind these values is patent US20220023281A1, “HETEROCYCLIC SPIRO-COMPOUNDS AS AM2 RECEPTOR INHIBITORS” (THE UNIVERSITY OF SHEFFIELD, priority 2018, published 2022).
